From US20260116868A1 (Arcus Biosciences, Inc., priority 2023, published 2026)
Like-named read-outs stand apart in the source and are kept apart here.

Tests used:
Cbl-b = target: T1, Cbl-b (Homo sapiens, UniProt Q13191); assay: Cbl-b probe displacement HTRF binding assay; settings: 0.4 nM Cbl-b, 150 nM BODIPY probe
T1 construct: biotin (biotinylated protein)
Summary of the method: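 Compound competes with BODIPY probe (150 nM) for biotinylated Cbl-b (0.4 nM) in HEPES/NaCl/Triton/TCEP/BSA buffer; 60 min preincubation, 15 min with probe, room temperature. Tb-streptavidin HTRF read; % displacement vs DMSO and no-protein controls, IC50 from four-parameter fit.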

Jurkat cells = assay: IL-2 secretion assay in Jurkat cells activated with CD3/CD28 T Cell Activator; type: cell-based; settings: Homo sapiens, 24 h, read-out: IL-2 Secretion (EC50)
Summary of the method: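 Jurkat cells in Opti-MEM were preincubated 1 h at 37° C with compound (final 10 μM to 300 pM, 16-point 1:2 dilution), then activated with human CD3/CD28 T Cell Activator for 24 h at 37° C. Supernatant IL-2 measured by AlphaLISA; EC50 from 4-parameter logistic fit.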

[1] = Jurkat cells, CD3/CD28 T Cell Activator, IL-2 AlphaLISA

T1 sequence (Q13191 whole entry, species assumed): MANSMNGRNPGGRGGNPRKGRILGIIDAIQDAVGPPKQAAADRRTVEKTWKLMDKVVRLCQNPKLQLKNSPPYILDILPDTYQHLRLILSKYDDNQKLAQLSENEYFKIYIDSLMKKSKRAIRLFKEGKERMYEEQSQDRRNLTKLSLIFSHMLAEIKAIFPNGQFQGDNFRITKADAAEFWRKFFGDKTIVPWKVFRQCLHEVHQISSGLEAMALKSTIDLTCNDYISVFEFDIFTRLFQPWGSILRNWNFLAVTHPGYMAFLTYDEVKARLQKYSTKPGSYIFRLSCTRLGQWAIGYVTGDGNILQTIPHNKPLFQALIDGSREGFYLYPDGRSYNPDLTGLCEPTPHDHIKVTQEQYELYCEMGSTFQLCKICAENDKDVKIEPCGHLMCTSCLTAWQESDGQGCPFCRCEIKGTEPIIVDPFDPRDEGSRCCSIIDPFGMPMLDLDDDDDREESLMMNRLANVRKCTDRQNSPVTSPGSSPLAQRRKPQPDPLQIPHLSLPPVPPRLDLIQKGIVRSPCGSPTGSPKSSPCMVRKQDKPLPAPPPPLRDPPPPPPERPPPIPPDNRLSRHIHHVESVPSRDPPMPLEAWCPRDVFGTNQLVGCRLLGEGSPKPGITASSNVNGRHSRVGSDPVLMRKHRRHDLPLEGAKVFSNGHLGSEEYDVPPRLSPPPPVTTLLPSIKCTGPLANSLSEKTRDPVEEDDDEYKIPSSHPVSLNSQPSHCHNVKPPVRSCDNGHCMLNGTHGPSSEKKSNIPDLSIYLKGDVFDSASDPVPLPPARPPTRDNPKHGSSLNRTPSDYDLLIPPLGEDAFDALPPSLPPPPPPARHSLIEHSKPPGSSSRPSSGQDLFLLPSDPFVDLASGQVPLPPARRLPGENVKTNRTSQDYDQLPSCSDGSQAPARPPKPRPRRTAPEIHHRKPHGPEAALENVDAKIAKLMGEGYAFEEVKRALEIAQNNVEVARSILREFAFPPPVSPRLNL

Compound	IC50 (Cbl-b) [nM]	EC50 (Jurkat cells; [1]) [nM]	EC50 (Jurkat cells; Jurkat) [nM]
COC[C@H](C)NCc1cc(C(=O)Nc2cc(-c3ccc(F)cc3-c3nncn3C)cc(C3CC3)n2)c(=O)n(C2CC2)c1 [Example 18, N-{6-cyclopropyl-4-[4-fluoro-2-(4-methyl-4H-1,2,4-triazol-3-yl)phenyl]-2-pyridyl}-5-{[(S)-2-methoxy-1-methylethylamino]methyl}-1-cyclopropyl-2-oxo-1,2-dihydronicotinamide]	< 100	< 100	–
COCCN(C)Cc1cc(C(=O)Nc2cc(-c3ccc(F)cc3-c3nncn3C)cc(C3CC3)n2)c(=O)n(C2CC2)c1 [Example 6, N-{6-cyclopropyl-4-[4-fluoro-2-(4-methyl-4H-1,2,4-triazol-3-yl)phenyl]-2-pyridyl}-1-cyclopropyl-5-{[(2-methoxyethyl)-N-methylamino]methyl}-2-oxo-1,2-dihydronicotinamide]	< 100	1000 to 5000	–
COCCNCc1cc(C(=O)Nc2cc(-c3ccc(C#N)cc3-c3nncn3C(F)F)cc(C3CC3)n2)c(=O)n(C2CC2)c1 [Example 14, N-(4-{4-cyano-2-[4-(difluoromethyl)-4H-1,2,4-triazol-3-yl]phenyl}-6-cyclopropyl-2-pyridyl)-1-cyclopropyl-5-[(2-methoxyethylamino)methyl]-2-oxo-1,2-dihydronicotinamide]	< 100	< 100	–
CCOc1cc(-c2ccc(F)cc2-c2nncn2C)cc(NC(=O)c2cc(CNCCOC)cn(C3CC3)c2=O)n1 [Example 5, 1-cyclopropyl-N-[6-ethoxy-4-[4-fluoro-2-(4-methyl-1,2,4-triazol-3-yl)phenyl]pyridin-2-yl]-5-[(2-methoxyethylamino)methyl]-2-oxopyridine-3-carboxamide]	< 100	< 100	–
COC[C@@H](C)NCc1cc(C(=O)Nc2cc(-c3ccc(F)cc3-c3nncn3C)cc(C3CC3)n2)c(=O)n(C2CC2)c1 [Example 21, N-{6-cyclopropyl-4-[4-fluoro-2-(4-methyl-4H-1,2,4-triazol-3-yl)phenyl]-2-pyridyl}-5-{[(R)-2-methoxy-1-methylethylamino]methyl}-1-cyclopropyl-2-oxo-1,2-dihydronicotinamide]	< 100	< 100	–
COCCNCc1cc(C(=O)Nc2cc(-c3ccc(F)cc3-c3nncn3C)cc(C3CC3)n2)c(=O)n(C2CC2)c1 [Example 4, 1-cyclopropyl-N-[6-cyclopropyl-4-[4-fluoro-2-(4-methyl-1,2,4-triazol-3-yl)phenyl]pyridin-2-yl]-5-[(2-methoxyethylamino)methyl]-2-oxopyridine-3-carboxamide]	< 100	< 100	–
Cn1cnnc1-c1cc(F)ccc1-c1cc(NC(=O)c2cc(CNCC3(F)CCC3)cn(C3CC3)c2=O)nc(C2CC2)c1 [Example 24, N-{6-cyclopropyl-4-[4-fluoro-2-(4-methyl-4H-1,2,4-triazol-3-yl)phenyl]-2-pyridyl}-1-cyclopropyl-5-({[(1-fluorocyclobutyl)methyl]amino}methyl)-2-oxo-1,2-dihydronicotinamide]	< 100	< 100	–
CO[C@H](C)CNCc1cc(C(=O)Nc2cc(-c3ccc(F)cc3-c3nncn3C)cc(C3CC3)n2)c(=O)n(C2CC2)c1 [Example 20, N-{6-cyclopropyl-4-[4-fluoro-2-(4-methyl-4H-1,2,4-triazol-3-yl)phenyl]-2-pyridyl}-5-{[(R)-2-methoxypropylamino]methyl}-1-cyclopropyl-2-oxo-1,2-dihydronicotinamide]	< 100	< 100	–
COC(F)(F)CNCc1cc(C(=O)Nc2cc(-c3ccc(F)cc3-c3nncn3C)cc(C3CC3)n2)c(=O)n(C2CC2)c1 [Example 19, N-{6-cyclopropyl-4-[4-fluoro-2-(4-methyl-4H-1,2,4-triazol-3-yl)phenyl]-2-pyridyl}-1-cyclopropyl-5-[(2,2-difluoro-2-methoxyethylamino)methyl]-2-oxo-1,2-dihydronicotinamide]	< 100	100 to 1000	–
CC(C)CNCc1cc(C(=O)Nc2cc(-c3c(F)cc(Cl)cc3C(=O)N3CC(F)(F)C3)cc(C3CC3)n2)c(=O)n(C2CC2)c1 [Example 144, N-(4-{4-chloro-2-[(3,3-difluoro-1-azetidinyl)carbonyl]-6-fluorophenyl}-6-cyclopropyl-2-pyridyl)-1-cyclopropyl-5-[(isobutylamino)methyl]-2-oxo-1,2-dihydronicotinamide]	< 100	–	< 100
C[C@H]1CCCN(Cc2cc(C(=O)Nc3cc(-c4ccc(C#N)cc4-c4nncn4C(F)F)cc(C4CC4)n3)c(=O)n(C3CC3)c2)C1 [Example 7, N-(4-{4-cyano-2-[4-(difluoromethyl)-4H-1,2,4-triazol-3-yl]phenyl}-6-cyclopropyl-2-pyridyl)-5-{[(S)-3-methyl-1-piperidyl]methyl}-1-cyclopropyl-2-oxo-1,2-dihydronicotinamide]	< 100	< 100	–

Now from value to compound, other results behind:

IC50 (Cbl-b) [nM]	EC50 (Jurkat cells; [1]) [nM]	Compound	EC50 (Jurkat cells; Jurkat) [nM]
100 to 1000	> 5000	Cn1cnnc1-c1cc(F)ccc1-c1cc(NC(=O)c2cc(C3CCNC3)cn(CC3CC3)c2=O)nc(C2CC2)c1 (centres unmarked) [Example 31, N-[6-cyclopropyl-4-[4-fluoro-2-(4-methyl-1,2,4-triazol-3-yl)phenyl]pyridin-2-yl]-1-(cyclopropylmethyl)-2-oxo-5-pyrrolidin-3-ylpyridine-3-carboxamide]	–
< 100	100 to 1000	C[C@H]1CCCN(Cc2cc(C(=O)Nc3cc(-c4ccc(F)cc4C(=O)N4CC(F)C4)cc(C4CC4)n3)c(=O)n(C3CC3)c2)C1 [Example 65, N-(6-cyclopropyl-4-{4-fluoro-2-[(3-fluoro-1-azetidinyl)carbonyl]phenyl}-2-pyridyl)-5-{[(S)-3-methyl-1-piperidyl]methyl}-1-cyclopropyl-2-oxo-1,2-dihydronicotinamide]	–
< 100	100 to 1000	C[C@H]1CCCN(Cc2cc(C(=O)Nc3cc(-c4ccc(C#N)cc4-c4nccn4C)cc(Cl)n3)c(=O)n(C3CC3)c2)C1 [Example 35, N-{6-chloro-4-[4-cyano-2-(1-methyl-2-imidazolyl)phenyl]-2-pyridyl}-5-{[(S)-3-methyl-1-piperidyl]methyl}-1-cyclopropyl-2-oxo-1,2-dihydronicotinamide]	–
100 to 1000	> 5000	Cn1ccnc1-c1cc(C#N)ccc1-c1cc(NC(=O)c2cc(CO)cn(C3CC3)c2=O)nc(C2CC2)c1 (single isomer, unassigned) [Example 37, N-{4-[4-cyano-2-(1-methyl-2-imidazolyl)phenyl]-6-cyclopropyl-2-pyridyl}-1-cyclopropyl-5-(hydroxymethyl)-2-oxo-1,2-dihydronicotinamide]	–
< 100	< 100	C[C@H]1CCCN(Cc2cc(C(=O)Nc3cc(-c4ccc(F)cc4-c4nncn4C)cc(C4CC4)n3)c(=O)n(CCO)c2)C1 [Example 59, N-[6-cyclopropyl-4-[4-fluoro-2-(4-methyl-1,2,4-triazol-3-yl)phenyl]pyridin-2-yl]-1-(2-hydroxyethyl)-5-[[(3S)-3-methylpiperidin-1-yl]methyl]-2-oxopyridine-3-carboxamide]	–
< 100	< 100	CO[C@H]1CCC[C@@H]1NCc1cc(C(=O)Nc2cc(-c3ccc(C#N)cc3C(=O)N3CC(F)(F)C3)cc(C3CC3)n2)c(=O)n(CC(F)(F)F)c1 [Example 154, N-[4-[4-cyano-2-(3,3-difluoroazetidine-1-carbonyl)phenyl]-6-cyclopropylpyridin-2-yl]-5-[[[(1S,2S)-2-methoxycyclopentyl]amino]methyl]-2-oxo-1-(2,2,2-trifluoroethyl)pyridine-3-carboxamide]	–
100 to 1000	> 5000	Cn1cnnc1-c1cc(F)ccc1-c1cc(NC(=O)c2cc(C3CCNC3)cn(C3CC3)c2=O)nc(C2CC2)c1 (centres unmarked) [Example 30, N-{6-Cyclopropyl-4-[4-fluoro-2-(4-methyl-4H-1,2,4-triazol-3-yl)phenyl]-2-pyridyl}-1-cyclopropyl-2-oxo-5-(3-pyrrolidinyl)-1,2-dihydronicotinamide]	–
< 100	100 to 1000	CN(C)Cc1cc(C(=O)Nc2cc(-c3ccc(F)cc3-c3nncn3C)cc(C3CC3)n2)c(=O)n(C2CC2)c1 [Example 33, N-{6-Cyclopropyl-4-[4-fluoro-2-(4-methyl-4H-1,2,4-triazol-3-yl)phenyl]-2-pyridyl}-1-cyclopropyl-5-[(dimethylamino)methyl]-2-oxo-1,2-dihydronicotinamide]	–
< 100	100 to 1000	COCCNCc1cc(C(=O)Nc2cc(-c3ccc(F)cc3-n3nncc3CF)cc(C3CC3)n2)c(=O)n(C2CC2)c1 [Example 72, 1-Cyclopropyl-N-[6-cyclopropyl-4-[4-fluoro-2-[5-(fluoromethyl)triazol-1-yl]phenyl]pyridin-2-yl]-5-[(2-methoxyethylamino)methyl]-2-oxopyridine-3-carboxamide]	–
< 100	< 100	CO[C@@H](C)CNCc1cc(C(=O)Nc2cc(-c3c(F)cc(Cl)cc3C(=O)N3CC(F)(F)C3)cc(C3CC3)n2)c(=O)n(C2CC2)c1 [Example 102, N-[4-[4-chloro-2-(3,3-difluoroazetidine-1-carbonyl)-6-fluorophenyl]-6-cyclopropylpyridin-2-yl]-1-cyclopropyl-5-[[[(2S)-2-methoxypropyl]amino]methyl]-2-oxopyridine-3-carboxamide]	–
< 100	< 100	C[C@H]1CCCN(Cc2cc(C(=O)Nc3cc(-c4ccc(C#N)cc4-c4nccn4C)cc(C4CC4)n3)c(=O)n(C3CC3)c2)C1 [Example 43, N-{4-[4-cyano-2-(1-methyl-2-imidazolyl)phenyl]-6-cyclopropyl-2-pyridyl}-5-{[(S)-3-methyl-1-piperidyl]methyl}-1-cyclopropyl-2-oxo-1,2-dihydronicotinamide]	–
